Results on 2 compounds are retold here after patent US20170119907A1, “Targeted Therapeutics” (MEDIVATION TECHNOLOGIES, INC., priority 2014, published 2017).

Series [1] deals with Raji cells. Briefly: Binding to and staining of Raji cells (Example B1b). The series is classed as cell-based. The note with it: photomicrographs; for binding to Raji cells: FIG. 2B, Example B1b; for binding to and staining of Raji cells: FIG. 4B.
Series [2] relates to rabbit dorsal femoral condyle explants. Kind of series: Binding to rabbit dorsal femoral condyle explants (fluorescence staining). The note with it: 100 μM in PBS, 30 min; 530/600 nm; FIGS. 5A, 5B. The method, then:
Rabbit dorsal femoral condyle explants were incubated with PBS or 100 μM Compound 4 or Compound 20 in PBS for 30 min. Explants were washed twice in excess PBS. Staining of explants was determined using the 530/600 nm filter set on the Molecular Imaging Gel Logic system.

The next series concerns human MSCs. Kind of series: Binding to and staining of human MSCs. The format is cell-based. The note with it: photomicrographs, FIG. 4A.
For series [3], the system named is Raji cells / rabbit dorsal femoral condyle explants. Briefly: Adherence of calcein-labeled Raji cells to rabbit dorsal femoral condyle explants. The format is cell-based. The note with it: cells incubated with 10 μM compound in PBS, 30 min; 475/535 nm; FIG. 6B. How it is done:
Raji cells were labeled with calcein for 30 min, washed with PBS, and incubated with Compound 4 or Compound 20 (10 μM in PBS) or with PBS for 30 min. Cells were washed in PBS. Rabbit dorsal femoral condyle explants were then incubated for 30 min with (1) the PBS-incubated, calcein-labeled Raji cells or (2) the calcein-labeled Raji cells that had been incubated with 10 μM Compound 4 or Compound 20. Explants were washed twice with excess PBS, and the 475/535 nm filter set on the Molecular Imaging Gel Logic system was used to detect the binding of […] to the explants by detecting the calcein.

Series [4] concerns Raji cells. Briefly: Binding to Raji cells (visual inspection of staining). The settings on record: 10 μM in PBS, 30 min; FIG. 4B. The series is classed as cell-based. How it is done:
Raji cells were incubated in PBS without Compounds 4 or 20 or with 10 μM Compound 4 or 10 μM Compound 20 in PBS for 30 min and then washed twice with 1 mL PBS. Samples were visually inspected to determine staining

In series [5] the test system is rabbit dorsal femoral condyle explants. Kind of series: Binding to and staining of rabbit dorsal femoral condyle explants. The settings on record: photomicrographs, FIGS. 5A-B.
A further series deals with hMSCs. Briefly: Differentiation of human MSCs to chondrocytes in pellet culture (aggrecan stain). The series is classed as cell-based. The settings on record: for ECM area (Aggrecan stain): 10 μM, 21 days, Differentiation Medium +, aggrecan ratio relative to cell number; for Differentiation of hMSCs to chondrocytes (in words): compound and differentiation medium, with or without priming, relative to control without differentiation medium. How it is done:
hMSCs (Lonza, Cat No PT-2501) were cultured in complete mesenchymal stem cell culture medium (Lonza, Cat No PT-3238). For differentiation experiments, complete mesenchymal stem cell culture medium was removed, and hMSCs were either incubated for 30 min in chondrocyte differentiation medium containing TGFβ (R&D Systems, Cat No CCM005 and CCM006) (primed condition) or maintained in complete mesenchymal stem cell culture medium for 30 min.
hMSCs were collected, washed in PBS, and incubated in 500 μL of 10 μM Compound 4 or 20 in PBS for 20 min. Cells were washed in PBS and counted. 5×10^5 cells were placed in a 15 mL tube. The cells were centrifuged at 500 g for 7 min, and either 500 μL of maintenance medium (Lonza, Cat No PT-3238) or chondrocyte differentiation medium was added gently. The medium was changed every 2 to 3 days for three weeks, maintaining the 500 μL volume.
After three weeks, the medium was removed, and cell pellets were fixed in 500 μL of a 4% paraformaldehyde (PFA) in PBS solution for 20 min at room temperature. The solution was removed, and 500 μL of a 4% PFA, 15% sucrose in PBS was added, and the mixture was left overnight. The solution was removed, and 500 μL of a 4% PFA, 30% sucrose in PBS was added, then the mixture was left overnight or until the pellet was in the bottom of the tube. The pellet culture was frozen in TISSUE-TEK® O.C.T. compound (Cat No 4583), and 5 μm cuts were made. The slices were fixed on a positive charged slide (Cell Path, Cat No MDB-0102-54A). A hydrophobic pen was used to draw a line around the cuts on the slide.
100-300 μL of blocking solution (1% BSA, 0.3% TRITON® X-100 in PBS) was added on top of the slices which were left for 1 h at RT. The blocking solution was extracted with a micropipette. Primary antibody (goat anti-aggrecan G1-IgD-G2 domain, R&D systems, Cat No AF1220) was diluted 1:20 in blocking solution, and 100-200 μL of this solution was added on top of the slices. The slides were left at 4° C. overnight in a humidified box. The primary antibody solutions were removed, and the slices were washed 3 times with 1% BSA in PBS for 5 min. The lines were redrawn around the slices with the hydrophobic pen. From the incubation with the secondary antibody and on, the samples were kept in the dark to avoid degrading the fluorophore.
The secondary antibodies were diluted 1:100 in blocking solution. 100-200 μL of the secondary antibody solution (donkey anti-goat IgG Alexa fluor 488, Invitrogen, Cat No A11055) was added to the slices. The slices were incubated for 1 h at RT. The slices were washed 3 times with 1% BSA in PBS for 5 min. The lines were redrawn around the slices with the hydrophobic pen.
Slices were stained with 100-200 μL of a 1:2000 dilution of DAPI in PBS for 5 min at RT. The DAPI was removed, and the slices were washed 3 times with PBS for 5 min, then washed a 4th time with distilled water for another 5 min. The slides were left to dry. 30 μL of Fluorescent Mounting Medium was added, and then the slices were covered with a coverslip.

For series [6], the system named is Raji cells. Briefly: Adherence of Raji cells to rabbit dorsal femoral condyle explants. The series is classed as cell-based. The note with it: photomicrographs, FIG. 6B.
Series [7] has as its system articular cartilage degeneration (MIA model). Briefly: Monosodium iodoacetate (MIA) model of articular cartilage degeneration, compound-incubated hMSCs. The note with it: rat MIA 3 mg intra-articular; 4×10^5 hMSCs incubated in 10 μM compound injected day 7; evaluated day 28; FIG. 7. The series is classed as in vivo, Sprague Dawley rats. How it is done: 6 to 8 week old Sprague Dawley rats were anesthetized with 3% sevofluorane and injected in both the right and left knee intra-articularly with MIA (monosodium iodoacetate, Sigma Cat No I2512) at a dose of 3 mg in a volume of 50 pt. MIA was dissolved in sterile saline (0.9%). hMSCs (Lonza, Cat No PT-2501) were cultured in complete MSCCM™ mesenchymal stem cell culture medium (Lonza, Cat No PT-3238).
Seven days after the injection of MIA, 2-10 million hMSCs were collected and incubated for 20 min in 500 μL of 10 μM Compound 20 in PBS or in PBS alone (untreated). Cells were washed with PBS and counted.
Rats were again anesthetized with 3% sevofluorane. 4×10^5 hMSCs incubated in PBS or in Compound 20 were injected intraarticularly through the patellar ligament. Untreated hMSC were injected into the left knee joint, and Compound 20-stained hMSCs were injected into the right knee joint.
Twenty eight days after the injection of MIA, rats were euthanized, and femoral condyles were extracted for macroscopic evaluation.

The test system of series [8] is Raji cells. Briefly: Viability of Raji cells treated with compound (Example B2). The series is classed as cell-based. The note with it: concentrations of 20 μM or below, FIG. 3C.

Turning to `Cc1cc2nc3cc(C)c(NCCCCCCCCNc4cc5c(cc4C)nc4cc(C)c(N)cc4[n+]5-c4ccccc4)cc3[n+](-c3ccccc3)c2cc1N.[Cl-].[Cl-]` [Compound 4, 7,7′-(octane-1,8-diylbis(azanediyl))bis(3-amino-2,8-dimethyl-5-phenylphenazin-5-ium) chloride], in the series with Raji cells [1], the “binding to Raji cells” value was “binding”; the “binding to and staining of Raji cells” value was “bind to and stain”. Besides, the “Binding to rabbit dorsal femoral condyle explants (fluorescence)” value in series [2] is “strong fluorescence”. In addition, the “binding to and staining of human MSCs” value in the series with human MSCs is “binds to and stains”. Also, in [3], the “Adherence of calcein-labeled Raji cells to explants” value is listed as “promoted adherence”. The “Binding to Raji cells (visual staining)” value with Raji cells [4] is “bind to Raji cells”. For the same compound, in [5], the “binding to and staining of rabbit dorsal femoral condyle explants” value is “bind to and stain”. Also, the “ECM area (Aggrecan stain)” value in the series with hMSCs (Priming +) worked out at 1.41. In addition, the “ECM area (Aggrecan stain)” value in the series with hMSCs (Priming −) worked out at 0.74. Further, in the series with hMSCs, the “Differentiation of hMSCs to chondrocytes (in words)” value is given as “induced high levels of differentiation”. For the same compound, the “adherence of Raji cells to rabbit dorsal femoral condyle explants” value in the series on Raji cells [6] was “promote adherence”.
As for `Cc1cc2nc3cc(C)c(NCCCCCCNC(=O)c4ccc(-c5ccc(C(=O)NCCCCCCNc6cc7c(cc6C)nc6cc(C)c(N)cc6[n+]7-c6ccccc6)cc5)cc4)cc3[n+](-c3ccccc3)c2cc1N.[Cl-].[Cl-]` [Compound 20, (3-amino-7-{[6-({4-[4-({6-[(7-amino-5-chloranuide-2,8-dimethyl-5-phenyl-5λ^6,10-phenazin-5-ylium-3-yl)amino]hexyl}carbamoyl)phenyl]phenyl}formamido)hexyl]amino}-2,8-dimethyl-5-phenyl-5λ^6,10-phenazin-5-ylium-5-e)chloranuide], the “Macroscopic evaluation of femoral condyle cartilage” value in series [7] is “an improvement in the cartilage and surrounding bone area”. Moreover, the “binding to Raji cells” value in the series on Raji cells [1] is “binding”. For the same compound, the “binding to and staining of Raji cells” value in the series with Raji cells [1] is “bind to and stain”. Further, the “Binding to rabbit dorsal femoral condyle explants (fluorescence)” value in series [2] is given as “strong fluorescence”. The “Adherence of calcein-labeled Raji cells to explants” value in series [3] is given as “promoted adherence”. Moreover, in the series on Raji cells [8], the “viability of Raji cells relative to untreated control Raji cells” value is “do not affect”. Further, the “Binding to Raji cells (visual staining)” value in the series on Raji cells [4] is listed as “bind to Raji cells”. The “binding to and staining of rabbit dorsal femoral condyle explants” value in series [5] is “bind to and stain”. Besides, the “ECM area (Aggrecan stain)” value with hMSCs (Priming +) was 0.97; in the series with hMSCs (Priming −), 0.74. Besides, the “Differentiation of hMSCs to chondrocytes (in words)” value with hMSCs was “induced high levels of differentiation”. Moreover, in the series on Raji cells [6], the “adherence of Raji cells to rabbit dorsal femoral condyle explants” value is recorded as “promote adherence”.
